Tests used:
[1] = test system: Boophilus microplus Biarra (larvae); assay: Arena test in vitro against Boophilus microplus Biarra (larvae); format: in vivo; conditions: even up to a dilution of 3.2 μg/cm^2
Method: (§1) This method is carried out in titre plates having 6 wells with a cross-section of 5 cm each, using a computer-supported video system. Each well of the titre plate is lined with a circular filter paper or another suitable carrier material. The substance of formula I to be tested is dissolved in methanol, acetonitrile or another suitable solvent, with ultrasound treatment and heating being employed for poorly-soluble substances. In an amount of 1 to 100 μg/cm^2, the dissolved test substance is placed in the centre of the filter paper on a quadrant or circular area of ca. 2.4 cm^2 radius. 4 of the 6 wells are filled with different test substances or with the same test substance in different dilutions (e.g. 1, 3.2, 5, 10 and 20 μg/cm^2). The 5th well is treated with DEET (N,N-diethyl-m-toluamide) as standard substance. The 6th well is filled with the pure solvent and serves as a control. 60 to 100 larvae or 25 to 50 nymphs or 10 to 25 adults of the parasite to be tested, e.g. ticks, are added to each filter paper, and the system is covered with a pane of glass and positioned under a video camera. At intervals of 5 seconds, the video camera takes individual pictures of all 6 wells. For a qualitative evaluation, these images are observed in a time-lapse as a continuous film, optically following the movements of the parasites on the filter paper and comparing them with the movements in the control well no. 6 or with the standard in the 5th well. A qualitative observation is thus made as to whether the test parasites move evenly over the whole surface of the filter paper and ignore the test substance, or whether and over what period they avoid the treated zone, and what influence the dilution of the test substance has on the behaviour of the test parasites. In this way, neutral and repellent substances are determined. At the same time, the duration of activity of the test substance is determined and compared with that of the standard. […] This frequency is evaluated statistically and thus quantitatively by the Willcoxon method in a comparison with the control and with the standard. […]

[2] = test system: Amblyomma hebraeum or variegatum (nymphs); assay: Arena test in vitro against Amblyomma hebraeum or variegatum (nymphs); format: in vivo; conditions: even up to a dilution of 3.2 μg/cm^2
Method: as §1

[3] = test system: Rhipicephalus sanguineus (nymphs); assay: Arena test in vitro against Rhipicephalus sanguineus (nymphs); format: in vivo; conditions: even up to a dilution of 3.2 μg/cm^2
Method: as §1

ticks = assay: Arena test method for testing vermin-repellent substances; format: in vivo; conditions: 1 to 100 μg/cm^2 on filter paper, video evaluation versus control and DEET
Method: Arena Test Method for Testing Vermin-repellent Substances
This method is carried out in titre plates having 6 wells with a cross-section of 5 cm each, using a computer-supported video system. Each well of the titre plate is lined with a circular filter paper or another suitable carrier material. The substance of formula I to be tested is dissolved in methanol, acetonitrile or another suitable solvent, with ultrasound treatment and heating being employed for poorly-soluble substances. In an amount of 1 to 100 μg/cm^2, the dissolved test substance is placed in the centre of the filter paper on a quadrant or circular area of ca. 2.4 cm^2 radius. 4 of the 6 wells are filled with different test substances or with the same test substance in different dilutions (e.g. 1, 3.2, 5, 10 and 20 μg/cm^2). The 5th well is treated with DEET (N,N-diethyl-m-toluamide) as standard substance. The 6th well is filled with the pure solvent and serves as a control. […] In this way, neutral and repellent substances are determined. At the same time, the duration of activity of the test substance is determined and compared with that of the standard. […] This frequency is evaluated statistically and thus quantitatively by the Willcoxon method in a comparison with the control and with the standard. […]

vermin = conditions: cited from earlier work

Row | Compound | long-term activity against Boophilus larvae [1] | long-term activity against Amblyomma nymphs [2] | long-term activity against Rhipicephalus sanguineus nymphs [3] | repellent activity in arena test (ticks) | time after which it has to be reapplied (volatilizes rather rapidly) (vermin)
1 | OC(c1ccccc1)C1CCCN1 (stereo not drawn) [Compound 1.31, 2-[(1-phenyl)(1-hydroxy)methyl]pyrrolidine] | Particularly marked long-term activity | Particularly marked long-term activity | Particularly marked long-term activity | – | –
2 | OC(c1ccc(Cl)cc1)C1CCCN1 (stereo not drawn) [Compound 1.45, 2-[(1-[4-chorophenyl])(1-hydroxy)methyl]pyrrolidine] | Particularly marked long-term activity | Particularly marked long-term activity | Particularly marked long-term activity | excellent activity | –
3 | Cc1ccc(C(O)C2CCC(C)(C)N2)c(C)c1 (stereo not drawn) [Compound 1.55, 2-[(1-[2,4-dimethylphenyl])(1-hydroxy)methyl]-5,5-dimethyl-pyrrolidine] | Particularly marked long-term activity | Particularly marked long-term activity | Particularly marked long-term activity | excellent activity | –
4 | CCN(CC)C(=O)c1cccc(C)c1 [DEET, N,N-diethyl-m-toluamide] | – | – | – | – | ca. 2 hours
